The values below come from patent US4594345A, “Methylflavone-8-carboxylates” (Nippon Shinyaku Co. Ltd., priority 1982, dated 1986).

One test deals with SRS-A. The experiment in a line: Anti-SRS-A action (SRS-A induced shrinkage of guinea pig ileus). Also noted: species or system guinea pig (Hartley strain male). To be noted: treated five minutes before SRS-A (20 units), 5 min; for SRS-A Inhibition Ratio % 10^-6 M: 1 µM; for SRS-A Inhibition Ratio % 10^-7 M: 0.1 µM. On the procedure:
(§1) The effect of the compounds (I) of the present invention in the treatment of asthma and allergic diseases were evaluated by a passive cutaneous anaphylaxis assay (PCA) in rats and by measuring anti-SRS-A action using ileus of guinea pigs.
Anti-SRS-A action (An anti-action against slow reacting substance of anaphylaxie)
Hartley strain male guinea pigs (300 to 350 grams body weight) are killed and 1.0 to 1.5 cm of ileus is immediately excised from ileocecal parts and is suspended in 10 ml of Tyrode solution (95% O2 -5% CO2 saturation) containing 10^-7 g/ml of atropine and 10^-6 g/ml of pyrilamine. SRS-A (20 units) (the amount of SRS-A showing the same shrinkage as 5 ng of histamine is defined as one unit) prepared by using sensitized guinea pig lung is given to cause shrinkage there. Then antagonistic action of test compounds treated five minutes ago against the shrinkage is measured and recorded via isotonic transducer. [formula] in which A' is a height of shrinkage of SRS-A + test compound and A is that of SRS-A.

Test [1] has as its system passive cutaneous anaphylaxis (PCA). Kind of test: Passive cutaneous anaphylaxis assay (PCA) in rats. Type of test: in vivo, rat (Wister strain). The following applies: oral 10 mg/kg, one hour before antigen; for inhibition in vivo at 10 mg/kg: Rattus norvegicus, po, 1 h, read-out: PCA Inhibition Ratio %. The method, then: as §1
(i) Antiserum abundant in homocytotropic antibody is prepared by the same method as Tada and Okumura did (cf. Journal of Immunology, volume 106, page 1002, […]). Thus, one mg (calculated as an amount of protein) of DNP-As (2,4-dinitrophenyl-coupled ascaris extract) prepared by methods of Strejan and Campbell (Journal of Immunology, volume 98, page 893, 1971) and of Eisen (Journal of American Chemical Society, volume 85, page 4593, 1953) and […] pertussis vaccine are administered to each paw of Wister strain rats (180 to 200 grams body weights) by dividing the dose by four. Five days later, 0.5 mg of DNP-As is adminstered into muscle of back. Eight days later from the initial immunization, blood is taken from descending aorta under anesthetizing with ether, the resulting serum is stored at -80° C. and is melted before use.
(ii) Effect of tested compounds is investigated as follows:
Anti-serum obtained by the method (i) is diluted with physiological saline solution double by double successively and 0.05 ml of each diluted solution is administered into back of Wister strain rats (140 to 160 grams body weight) subcutaneously. After 72 hours, a solution of 2 mg (calculated as protein) of DNP-As and 2.5 mg of Evand Blue dissolved in 1 ml of physiological saline solution is administered intravenously at a dose of 5 ml/kg. After thirty minutes from antigen solution administration, the animals are killed and diameters of blue spots appeared at the place where antiserum is administered are measured. The PCA test is conducted by the same method as already described using a diluted solutions of antiserum which always show 10 mm or more of spot diameters and the effect of the test compounds is judged. Thus, antiserum diluted solutions are administered to two places in back. Test compounds are administered orally at the dose of 10 mg/kg one hour before administration of antigen solution. From the skin of reacted parts of killed animals, leaked or emitted dyestuff is extracted [cf. Baeck and Steinetz: J. Pharmacol. Exp. Ther., Vol. 131, page 400 (1961)] and the amount of the dyestuff is measured. The inhibition ratio is calculated by the following expression: [formula] in which R' is an amount of dyestuff in the group treated with the test compounds and A is that in the control group.

Molecules are shown by their SMILES.

For `CCCCN(CC)C(=O)c1cccc2c(=O)c(C)c(-c3ccc(C)cc3C)oc12` [Example 43, 2',3,4'-trimethylflavone-8-carboxylic acid N-n-butyl-N-ethylamide], in the test with SRS-A, the “SRS-A Inhibition Ratio % 10^-6 M” value came to 68.1% and the “SRS-A Inhibition Ratio % 10^-7 M” value came to 23.4%. Further, in test [1], the inhibition in vivo at 10 mg/kg stood at 18.8%.

As to `CCOC(=O)c1cccc2c(=O)c(C)c(-c3ccc(CC)cc3)oc12` [Example 45, ethyl 4'-ethyl-3-methylflavone-8-carboxylate], in the test with SRS-A, the “SRS-A Inhibition Ratio % 10^-6 M” value is listed as 52.2% and the “SRS-A Inhibition Ratio % 10^-7 M” value is reported as 16.0%. Besides, in test [1], the inhibition in vivo at 10 mg/kg was determined as 19%.

For `CCCCN(CCCC)C(=O)c1cccc2c(=O)c(C)c(-c3ccc(C(C)C)cc3)oc12` [Example 49, 4'-isopropyl-3-methylflavone-8-carboxylic acid N,N-di-n-butylamide], in the test on SRS-A, the “SRS-A Inhibition Ratio % 10^-6 M” value was 82.8% and the “SRS-A Inhibition Ratio % 10^-7 M” value was determined as 55.6%. Moreover, the inhibition in vivo at 10 mg/kg in test [1] came out at 20%.

On to `CCCCN(CC)C(=O)c1cccc2c(=O)c(C)c(-c3ccc(C(C)C)cc3)oc12` [Example 50, 4'-isopropyl-3-methylflavone-8-carboxylic acid N-n-butyl-N-ethylamide], for which, in the test with SRS-A, the “SRS-A Inhibition Ratio % 10^-6 M” value is given as 100% and the “SRS-A Inhibition Ratio % 10^-7 M” value turned out to be 70.0%. The inhibition in vivo at 10 mg/kg in test [1] came to 21.4%.

With `CCNC(=O)c1cccc2c(=O)c(C)c(-c3ccc(C(C)C)cc3)oc12` [Example 51, 4'-isopropyl-3-methylflavone-8-carboxylic acid N-ethylamide], in the test with SRS-A, the “SRS-A Inhibition Ratio % 10^-6 M” value was determined as 75.0% and the “SRS-A Inhibition Ratio % 10^-7 M” value was determined as 17.5%. In addition, the inhibition in vivo at 10 mg/kg in test [1] worked out at 19%.

Consider `CCCCCCNC(=O)c1cccc2c(=O)c(C)c(-c3ccc(C(C)C)cc3)oc12` [Example 52, 4'-isopropyl-3-methylflavone-8-carboxylic acid N-n-hexylamide], for which, in the test on SRS-A, the “SRS-A Inhibition Ratio % 10^-6 M” value came out at 66.1% and the “SRS-A Inhibition Ratio % 10^-7 M” value is recorded as 20.7%. The inhibition in vivo at 10 mg/kg in test [1] was determined as 13.5%.

Consider `Cc1c(-c2ccc(C(C)C)cc2)oc2c(C(=O)NC3CCCCC3)cccc2c1=O` [Example 53, 4'-isopropyl-3-methylflavone-8-carboxylic acid N-cyclohexylamide], for which, in the test with SRS-A, the “SRS-A Inhibition Ratio % 10^-6 M” value was determined as 51.9% and the “SRS-A Inhibition Ratio % 10^-7 M” value was 40.0%. Moreover, the inhibition in vivo at 10 mg/kg in test [1] worked out at 10.3%.

For the compound `Cc1c(-c2ccc(C(C)C)cc2)oc2c(C(=O)N3CCCCC3)cccc2c1=O` [Example 54, 4'-isopropyl-3-methylflavone-8-carboxylic acid N,N-pentamethylene amide], in the test with SRS-A, the “SRS-A Inhibition Ratio % 10^-6 M” value turned out to be 69.0% and the “SRS-A Inhibition Ratio % 10^-7 M” value is reported as 38.6%. Moreover, the inhibition in vivo at 10 mg/kg in test [1] was 13%.

Regarding `CCOC(=O)c1cccc2c(=O)c(C)c(-c3ccc(C(C)(C)C)cc3)oc12` [Example 56, ethyl 4'-tertiary butyl-3-methylflavone-8-carboxylate], in the test on SRS-A, the “SRS-A Inhibition Ratio % 10^-6 M” value turned out to be 44.9% and the “SRS-A Inhibition Ratio % 10^-7 M” value was determined as 19.0%. Also, in test [1], the inhibition in vivo at 10 mg/kg came to 20.2%.

As for `CCN(CC)C(=O)c1cccc2c(=O)c(C)c(-c3ccc(C(C)(C)C)cc3)oc12` [Example 57, 4'-tertiary butyl-3-methylflavone-8-carboxylic acid N,N-diethylamide], in the test on SRS-A, the “SRS-A Inhibition Ratio % 10^-6 M” value amounted to 39.1% and the “SRS-A Inhibition Ratio % 10^-7 M” value is reported as 10.4%. Also, the inhibition in vivo at 10 mg/kg in test [1] was determined as 19.1%.

As to `CCCCCc1ccc(-c2oc3c(C(=O)OCC)cccc3c(=O)c2C)cc1` [Example 59, ethyl 3-methyl-4'-n-pentylflavone-8-carboxylate], in the test with SRS-A, the “SRS-A Inhibition Ratio % 10^-6 M” value worked out at 38.1% and the “SRS-A Inhibition Ratio % 10^-7 M” value came to 9.8%. In test [1], the inhibition in vivo at 10 mg/kg is 19.4%.

As for `CCCCCc1ccc(-c2oc3c(C(=O)N(CC)CC)cccc3c(=O)c2C)cc1` [Example 60, 3-methyl-4'-n-pentylflavone-8-carboxylic acid N,N-diethylamide], in the test on SRS-A, the “SRS-A Inhibition Ratio % 10^-6 M” value is listed as 100% and the “SRS-A Inhibition Ratio % 10^-7 M” value worked out at 44.9%. Moreover, the inhibition in vivo at 10 mg/kg in test [1] is 13.4%.

Regarding `CCCCCc1ccc(-c2oc3c(C(=O)O)cccc3c(=O)c2C)cc1` [Example 61], in the test with SRS-A, the “SRS-A Inhibition Ratio % 10^-6 M” value came to 40.7% and the “SRS-A Inhibition Ratio % 10^-7 M” value turned out to be 9.4%. Also, the “PCA Inhibition Ratio %” value in test [1] (10 mg/kg) is 22.7%.

For `CCOC(=O)c1cccc2c(=O)c(C)c(-c3ccccc3Cl)oc12` [Example 67, ethyl 2'-chloro-3-methylflavone-8-carboxylate], in the test with SRS-A, the “SRS-A Inhibition Ratio % 10^-6 M” value turned out to be 100% and the “SRS-A Inhibition Ratio % 10^-7 M” value was found to be 42.9%. Further, the inhibition in vivo at 10 mg/kg in test [1] was found to be 19.8%.

With `CCN(CC)C(=O)c1cccc2c(=O)c(C)c(-c3ccccc3Cl)oc12` [Example 68], in the test with SRS-A, the “SRS-A Inhibition Ratio % 10^-6 M” value was determined as 55.3% and the “SRS-A Inhibition Ratio % 10^-7 M” value is listed as 9.8%. Besides, the inhibition in vivo at 10 mg/kg in test [1] is 21.1%.

In the case of `Cc1c(-c2ccccc2Cl)oc2c(C(=O)OCCO)cccc2c1=O` [Example 69, beta-hydroxyethyl 2'-chloro-3-methylflavone-8-carboxylate], in the test with SRS-A, the “SRS-A Inhibition Ratio % 10^-6 M” value is recorded as 55.3% and the “SRS-A Inhibition Ratio % 10^-7 M” value amounted to 9.8%. For the same compound, the inhibition in vivo at 10 mg/kg in test [1] came out at 14.3%.

For `CCOC(=O)c1cccc2c(=O)c(C)c(-c3ccc(Cl)cc3)oc12` [Example 71, ethyl 4'-chloro-3-methylflavone-8-carboxylate], in the test on SRS-A, the “SRS-A Inhibition Ratio % 10^-6 M” value turned out to be 10.3% and the “SRS-A Inhibition Ratio % 10^-7 M” value is listed as 6.0%. Moreover, the inhibition in vivo at 10 mg/kg in test [1] is 36.9%.

In the case of `CCN(CC)C(=O)c1cccc2c(=O)c(C)c(-c3ccc(Cl)cc3)oc12` [Example 72, 4'-chloro-3-methylflavone-8-carboxylic acid N,N-diethylamide], in the test on SRS-A, the “SRS-A Inhibition Ratio % 10^-6 M” value is on record as 42.1% and the “SRS-A Inhibition Ratio % 10^-7 M” value is recorded as 7.5%. Besides, the inhibition in vivo at 10 mg/kg in test [1] stood at 16.3%.

With `CCNC(=O)c1cccc2c(=O)c(C)c(-c3ccc(Cl)cc3)oc12` [Example 73, 4'-chloro-3-methylflavone-8-carboxylic acid N-ethylamide], in the test on SRS-A, the “SRS-A Inhibition Ratio % 10^-6 M” value was 29.4% and the “SRS-A Inhibition Ratio % 10^-7 M” value was 6.2%. Moreover, in test [1], the inhibition in vivo at 10 mg/kg turned out to be 19.4%.

In the case of `Cc1c(-c2cc(Cl)ccc2Cl)oc2c(C(=O)O)cccc2c1=O` [Example 76, 2',5'-dichloro-3-methylflavone-8-carboxylic acid], in the test with SRS-A, the “SRS-A Inhibition Ratio % 10^-6 M” value worked out at 65.2% and the “SRS-A Inhibition Ratio % 10^-7 M” value is recorded as 40.0%. Moreover, the inhibition in vivo at 10 mg/kg in test [1] is 13.2%.

For the compound `CCOC(=O)c1cccc2c(=O)c(C)c(-c3cc(Cl)ccc3Cl)oc12` [Example 77, ethyl 2',5'-dichloro-3-methylflavone-8-carboxylate], in the test on SRS-A, the “SRS-A Inhibition Ratio % 10^-6 M” value is on record as 67.4% and the “SRS-A Inhibition Ratio % 10^-7 M” value amounted to 6.9%. Besides, the inhibition in vivo at 10 mg/kg in test [1] was 16.3%.

Consider `CCN(CC)C(=O)c1cccc2c(=O)c(C)c(-c3cc(Cl)ccc3Cl)oc12` [Example 78, 2',5'-dichloro-3-methylflavone-8-carboxylic acid N,N-diethylamide], for which, in the test with SRS-A, the “SRS-A Inhibition Ratio % 10^-6 M” value is 79.3% and the “SRS-A Inhibition Ratio % 10^-7 M” value is reported as 5.6%. Further, the inhibition in vivo at 10 mg/kg in test [1] worked out at 26.3%.

Consider `CCOC(=O)c1cccc2c(=O)c(C)c(-c3ccc(Cl)cc3Cl)oc12` [Example 80, ethyl 2',4'-dichloro-3-methylflavone-8-carboxylate], for which, in the test on SRS-A, the “SRS-A Inhibition Ratio % 10^-6 M” value is 61.7% and the “SRS-A Inhibition Ratio % 10^-7 M” value is listed as 17.6%. Moreover, in test [1], the inhibition in vivo at 10 mg/kg turned out to be 21.3%.
